Reference: patent US20100286035A1, “NEUROMEDIN U DERIVATIVE” (Takeda Pharmaceutical Company Limited, priority 2007, published 2010)
Where no end group is shown, it is not given here.

Experiments:
Type in all cases: in vivo
male C57BL/6J mice [1] = test: Test Example 8: antifeedant activity of NMU-8 PEG conjugate in mice; conditions: 100 nmol/kg intraperitoneally, mice fasted for 16 hours (FIG. 9)
Method: 7 weeks old male C57BL/6J mice delivered from the Japan Charles River Company were raised for 5 to 10 days after delivery under a feeding environment regulated for temperature and humidity with lighting time (25° C., 12 hours of lighted period and 12 hours of dark period, light was lit at 8:00). Four animals were placed in one cage. After handling the mice for 5 to 8 days, the animals were housed singly in each cage where a floor mesh was spread and acclimated by intraperitoneal injection for 3 days prior to the administration of a peptide (conjugate). The animals acclimated were fasted for 16 hours from 18:00 prior to the administration of the peptide (conjugate). However, the animals has free access to drinking water). Subsequently, a peptide (conjugate) dissolved in physiological saline solution was intraperitoneally injected to the mice, namely 24.3 μM PEG30k (ACP)-NMU-8 [14], 24.3 μM (PEG20k)2 (ACP)-NMU-8 [29], 24.3 μM PEG30k (AB)-NMU-8 [11], 24.3 μM (PEG20k)2 (AB)-NMU-8 [26], 24.3 μM PEG30k (NH-AB)-NMU-8 [42], 24.3 μM PEG30k (SMCC)-NMU-8 [4] were administered intraperitoneally at 10:00 on the day of administration to the mice such that the dosage of each solution (100 μl) was 100 nmol/kg. After the injection of the peptide (conjugate) solution, MF feed which had been weighed (Oriental Yeast Industry) was given freely to the mice. Further, the residual amount of the feed was measured after 3, 6 and 24 hours. The food intakes at 3, 6 and 24 hours were calculated by subtracting the residual amount of the feed after 3, 6 and 24 hours from the amount of the feed that was originally given.

male C57BL/6J mice [2] = test: Test Example 4: antifeedant activity of NMU-8 PEG conjugate in mice; conditions: 100 nmol/kg intraperitoneally, mice fasted for 16 hours (FIG. 5)
Method: (§1) 7 weeks old male C57BL/6J mice delivered from the Japan Charles River Company were raised for 5 to 10 days after delivery under a feeding environment regulated for temperature and humidity with lighting time (25° C., 12 hours of lighted period and 12 hours of dark period, light was lit at 8:00). Four animals were placed in one cage. After handling the mice for 5 to 8 days, the animals were housed singly in each cage where a floor mesh was spread and acclimated by intraperitoneal injection for 3 days prior to the administration of a peptide (conjugate). The animals acclimated were fasted for 16 hours from 18:00 prior to the administration of the peptide (conjugate). However, the animals had free access to drinking water). Subsequently, a peptide dissolved in physiological saline solution (conjugate) was intraperitoneally injected into the mice, namely 24.2 μM PEG30k (GMBS)-NMU-8 [1], 24.2 μM PEG30k (EMCS)-NMU-8 [2], 24.2 μM PEG30k (KMUS)-NMU-8 [3], 24.2 μM PEG30k (SMCC)-NMU-8 [4] were administered intraperitoneally at 10:00 on the day of administration to the mice such that the dosage of each solution (100 μl) was 100 nmol/kg. After the injection of the peptide (conjugate) solution, MF feed which had been weighed (Oriental Yeast Industry) was given freely to the mice. Further, the residual amount of the feed was measured after 3, 6 and 24 hours. The food intakes at 3, 6 and 24 hours were calculated by subtracting the residual amount of the feed after 3, 6 and 24 hours from the amount of the feed that was originally given.

male C57BL/6J mice [3] = test: Test Example 5: antifeedant activity of NMU-8 PEG conjugate in mice; conditions: 10 nmol/kg intraperitoneally, mice fasted for 16 hours (FIG. 6)
Method: (§2) 7 weeks old male C57BL/6J mice delivered from the Japan Charles River Company were raised for 5 to 10 days after delivery under a feeding environment regulated for temperature and humidity with lighting time (25° C., 12 hours of lighted period and 12 hours of dark period, light was lit at 8:00). Four animals were placed in one cage. After handling the mice for 5 to 8 days, the animals were housed singly in each cage where a floor mesh was spread and acclimated by intraperitoneal injection using a syringe (micro injector, syringe for insulin administration, Terumo) for 3 days prior to the administration of a peptide (conjugate). The animals acclimated were fasted for 16 hours from 18:00 prior to the administration of the peptide (conjugate). However, the animals had free access to drinking water). Subsequently, a peptide dissolved in physiological saline solution (conjugate) namely 2.39 μM PEG30k (GMBS)-NMU-8 [1], 2.39 μM PEG30k (EMCS)-NMU-8 [2], 2.39 μM PEG30k (KMUS)-NMU-8 [3], 2.39 μM PEG30k (SMCC)-NMU-8 [4] were administered intraperitoneally at 10:00 on the day of administration to the mice such that the dosage of each solution (100 μl) was 10 nmol/kg. After the injection of the peptide (conjugate) solution, MF feed which had been weighed (Oriental Yeast Industry) was given freely to the mice. Further, the residual amount of the feed was measured after 3, 6 and 24 hours. The food intakes at 3, 6 and 24 hours were calculated by subtracting the residual amount of the feed after 3, 6 and 24 hours from the amount of the feed that was originally given.

male C57BL/6J mice [4] = test: Test Example 7: antifeedant activity of NMU-8 PEG conjugate in mice; conditions: 10 nmol/kg intraperitoneally, mice fasted for 16 hours (FIG. 8)
Method: as §2, with “animals were” for “animals had”, “namely 2.51” for “namely 2.39”, “μM PEG30k-NMU-8 [5], 2.51” for “μM PEG30k (GMBS)-NMU-8 [1], 2.39”, “μM PEG30k-Cys-NMU-8 [6], 2.51” for “μM PEG30k (EMCS)-NMU-8 [2], 2.39”, “μM PEG30k-(Traut)-NMU-8 [7], 2.51” for “μM PEG30k (KMUS)-NMU-8 [3], 2.39”

male C57BL/6J mice [5] = test: Test Example 6: antifeedant activity of NMU-8 PEG conjugate in mice; conditions: 100 nmol/kg intraperitoneally, mice fasted for 16 hours (FIG. 7)
Method: as §1, with “Subsequently, a peptide dissolved in physiological saline solution (conjugate) was intraperitoneally injected into the mice, namely 24.2 μM PEG30k (GMBS)-NMU-8 [1], 24.2 μM PEG30k (EMCS)-NMU-8 [2], 24.2 μM PEG30k (KMUS)-NMU-8 [3], 24.2 μM PEG30k (SMCC)-NMU-8 [4] were administered intraperitoneally at 10:00 on the day of administration to the mice such that the dosage of each solution (100 μl) was 100 nmol/kg.” left out

male C57BL/6J mice [6] = test: Test Example 2: antifeedant activity of NMU-23 and NMU-8 in mice
Method: 7 weeks old male C57BL/6J mice (mean bodyweight: 25 g) delivered from the Japan Charles River Company were raised for 5 to 10 days after delivery under a feeding environment regulated for temperature and humidity with lighting time (25° C., 12 hours of lighted period and 12 hours of dark period, light was lit at 8:00). Four animals were placed in one cage. After handling the mice for 5 to 8 days, the animals were housed singly in each cage where a floor mesh was spread and acclimated by intraperitoneal injection for 3 days prior to the administration of a peptide. The animals acclimated were fasted for 16 hours from 18:00 prior to the administration of the peptide. However, the animals had free access to drinking water. […] After the injection of the peptide solution, MF feed which had been weighed (Oriental Yeast Industry) was given freely to the mice. Further, the residual amount of the feed was measured after 3, 6 and 24 hours. The food intakes at 3, 6 and 24 hours were calculated by subtracting the residual amount of the feed after 3, 6 and 24 hours from the amount of the feed that was originally given.
[In FIG. 2, * and ** tested by T-tests indicated to be lower at the levels of significance of 0.05 and 0.01 (P<0.05 and P<0.01]

male C57BL/6J mice [7] = test: Test Example 1: antifeedant activity of NMU-23 and NMS in mice; conditions: 3 mg/kg intraperitoneally, mice fasted for 16 hours
Method: 7 weeks old male C57BL/6J mice (mean bodyweight: 24 g) delivered from the Japan Charles River Company were raised for 5 to 7 days after the delivery under a feeding environment regulated for temperature and humidity with lighting time (25° C., 12 hours of lighted period and 12 hours of dark period, light was lit at 8:00). Four animals were placed in one cage. After handling the mice for 5 to 8 days, the animals were housed singly in each cage where a floor mesh was spread and acclimated by intraperitoneal injection for 3 days prior to the administration of a peptide. The animals acclimated were fasted for 16 hours from 18:00 prior to the administration of the peptide. However, the animals had free access to drinking water. Subsequently, a peptide, namely 720 μg/ml rat NMU-23 (peptide Institution) [Sequence No. 5], or rat NMS (Bachem) [Sequence No. 9] dissolved in physiological saline solution was intraperitoneally injected to the mice such that the dosage of each solution (100 μl) was 3 mg/kg at 10:00 on the day of administration. […] Further, the residual amount of the feed was measured after 3, 6 and 24 hours. The food intakes at 3, 6 and 24 hours were calculated by subtracting the residual amount of the feed after 3, 6 and 24 hours from the amount of the feed that was originally given. […]

Substance | intakes of the feed at 3, 6 and 24 hours (male C57BL/6J mice [1]) | intakes of the feed at 3, 6 and 24 hours (male C57BL/6J mice [2]) | intakes of the feed at 3, 6 and 24 hours (male C57BL/6J mice [3]) | intakes of the feed at 3, 6 and 24 hours (male C57BL/6J mice [4]) | intakes of the feed at 3, 6 and 24 hours (male C57BL/6J mice [5]) | other results
(PEG20k)2(AB)-NMU-8 | significantly suppressed |  |  |  |  | 
(PEG20k)2(ACP)-NMU-8 | significantly suppressed |  |  |  |  | 
PEG30k(AB)-NMU-8 | significantly suppressed |  |  |  |  | 
PEG30k(ACP)-NMU-8 | significantly suppressed |  |  |  |  | 
PEG30k(EMCS)-NMU-8 |  | significantly suppressed | significantly suppressed |  |  | 
PEG30k(GMBS)-NMU-8 |  | significantly suppressed | significantly suppressed |  |  | 
PEG30k(KMUS)-NMU-8 |  | significantly suppressed | significantly suppressed |  |  | 
PEG30k(SMCC)-NMU-8 | significantly suppressed | significantly suppressed | significantly suppressed | significantly suppressed | significantly suppressed | 
PEG30k(Traut)-NMU-8 |  |  |  | significantly suppressed | significantly suppressed | 
PEG30k-Cys-NMU-8 (C(PEG 30 kDa)FFLFRPRN-NH2) |  |  |  | significantly suppressed | significantly suppressed | 
PEG30k-NMU-8 |  |  |  | significantly suppressed | significantly suppressed | 
Tyr-Lys-Val-Asn-Glu-Tyr-Gln-Gly-Pro-Val-Ala-Pro-Ser-Gly-Gly-Phe-Phe-Leu-Phe-Arg-Pro-Arg-Asn-NH2 (YKVNEYQGPVAPSGGFFLFRPRN-NH2; listed as Rattus norvegicus) [rat NMU-23] |  |  |  |  |  | intakes of the feed at 3 and 6 hours (male C57BL/6J mice [6]; 3 mg/kg intraperitoneally, mice fasted for 16 hours): significantly suppressed; antifeedant activity via peripheral administration (male C57BL/6J mice [6]; peripheral administration): expresses an antifeedant activity; intakes of the feed at 3, 6 and 24 hours (male C57BL/6J mice [7]): significantly suppressed
rat NMS: rat neuromedin S (Bachem) [Sequence No. 9] (LPRLLHTDSRMATIDFPKKDPTTSLGRPFFLFRPRN-NH2; listed as Rattus norvegicus) |  |  |  |  |  | intakes of the feed at 3, 6 and 24 hours (male C57BL/6J mice [7]): significantly suppressed
